Source: patent US11174223B2, “Compositions, methods, and systems for the synthesis and use of imaging agents” (Lantheus Medical Imaging, Inc., priority 2010, dated 2021)

Key:
[1] = Whole organ bio-distribution and dosimetry from PET in healthy subjects; assay type: in vivo, human
Description: Whole organ bio-distribution and dosimetry for ^18F-labeled imaging agent-1 were determined based on PET image data from twelve healthy subjects. Image quantification, kinetic modeling to determine residence times, and dosimetry analysis were performed.
Head to mid-thigh PET image data for twelve healthy subjects were obtained using ^18F labeled imaging agent-1 at approximately 17, 31, 45, 117, 190, and 225 minutes post injection. Additionally, leg images were also obtained at approximately 66 and 274 minutes post injection. Image data were attenuation corrected at the imaging site, and were quantified based on the Medical Internal Radiation Dosimetry (MIRD) 16 methodology to determine kinetic data in all organs showing significant uptake of activity. Dosimetry estimates were created via kinetic modeling of the quantified image data to determine residence times, and the standard MIRD methodology using a method similar. Kinetic data, residence times, and the dosimetry estimates were reported for each subject and as summary statistics.

[2] = molecular target: T1, NET (Homo sapiens, UniProt P23975); test: NET mediated uptake kinetics in SK-N-SH cells; assay type: cell-based; parameters: endogenous in cells; host or cells: SK-N-SH
Description: (§1) The affinity (Ki) was determined in a competition binding assay by incubating ^19F-imaging agent-1, a cold analog of imaging agent-1, or NE with ^3H-desmethylimipramine in cell membrane overexpressing human NET. The uptake selectivity was assessed by measuring imaging agent-1 or ^3H-NE cell uptake with and without pretreatment of desipramine, a selective NET inhibitor, in SK—N—SH (human neuroblastoma) and PC-12 (rat pheochromocytoma) cells. In SK—NSH cells, the uptake kinetics (Km and Vmax) were evaluated by measuring NET mediated uptake of imaging agent-1 or NE at various concentrations. Imaging agent-1 cardiac image quality was evaluated by PET imaging (˜1.5 mCi, i.v.) in rabbits in the presence and absence of desipramine (1 mg/kg).

[3] = molecular target: T2, NET (Rattus norvegicus, UniProt Q63380); test: Cell uptake selectivity with and without desipramine in PC-12 cells; assay type: cell-based
T2 construct: endogenous in cells; host or cells: PC-12
Description: as §1

[4] = tested on: norepinephrine transporter (NET), uptake 1; test: Heart uptake in rats after uptake 1 blockade (desipramine) or 6-hydroxydopamine sympathetic denervation; assay type: in vivo; conditions: 60 minutes post injection
Description: (§2) Desipramine, a selective uptake 1 inhibitor, was used to block cardiac uptake 1 in rats (10 mg/kg, ip), rabbits (1 mg/kg iv), and NHPs (0.5 mg/kg, iv). 6-hydroxydopamine, a neurotoxin, was injected to induce sympathetic denervation in rats (100 mg/kg ip for 7 days) and rabbits (25 mg/kg iv on day 1, 2, 7, and 8). Imaging agent-1 heart uptake in comparison with MIBG was assessed by tissue sampling at 60 minutes post imaging agent injection. Imaging was also performed with (2-tert-butyl-4-chloro-5-[4-(2-[^18F]fluoroethoxymethyl)-benzyloxy]-2H-pyridazin-3-1.

[5] = molecular target: T3, norepinephrine transporter (NET), uptake 1 (Oryctolagus cuniculus, UniProt G1TDF9); test: Heart uptake in rabbits after uptake 1 blockade (desipramine) or 6-hydroxydopamine sympathetic denervation; assay type: in vivo; conditions: rabbits
T3 construct: from tissue; host or cells: rabbit heart, in vivo
Description: Imaging agent-1 was designed as a substrate for the norepinephrine transporter (NET) to image the cardiac sympathetic nervous system. […] These values were similar to that of MIBG (2.12±0.26 μM and 4.76±0.78 pmol/min/million cells). In animals, tissue biodistribution of imaging agent-1 was assessed by tissue sampling at 15- and 60-minute following administration. Heart uptake was 2.36±0.16 and 2.17±0.12% injected dose per g tissue (% ID/g) in rats and 0.25±0.03 and 0.28±0.03% ID/g in rabbits. In rabbits, desipramine (1 mg/kg) inhibited heart uptake of imaging agent-1 by 68% and ^123I-MIBG uptake by 55% at 1 hour post dose.
as §2

[6] = molecular target: T1, NET; test: Cell uptake selectivity with and without desipramine in SK-N-SH cells; assay type: cell-based; parameters: endogenous in cells; host or cells: SK-N-SH
Description: as §1

[7] = Cardiac PET imaging in rabbit models of regional and systemic cardiac sympathetic denervation (CSD); assay type: in vivo, rabbits
Description: Rabbit models of regional and systemic CSD were used. To develop regional CSD, a median sternotomy was performed and phenol (89% in liquid) was pained on the anterior and posterior walls of the left ventricle. To develop systemic denervation the neurotoxin, 6-hydroxydopamine (25 mg/kg on day 1, 2, 7 and 8), was administered intravenously. Two weeks following these procedures, rabbits were imaged with imaging agent-1 (˜1.5 mCi, i.v.) using a microPET camera for 30 minutes.

T1 sequence (P23975 whole entry): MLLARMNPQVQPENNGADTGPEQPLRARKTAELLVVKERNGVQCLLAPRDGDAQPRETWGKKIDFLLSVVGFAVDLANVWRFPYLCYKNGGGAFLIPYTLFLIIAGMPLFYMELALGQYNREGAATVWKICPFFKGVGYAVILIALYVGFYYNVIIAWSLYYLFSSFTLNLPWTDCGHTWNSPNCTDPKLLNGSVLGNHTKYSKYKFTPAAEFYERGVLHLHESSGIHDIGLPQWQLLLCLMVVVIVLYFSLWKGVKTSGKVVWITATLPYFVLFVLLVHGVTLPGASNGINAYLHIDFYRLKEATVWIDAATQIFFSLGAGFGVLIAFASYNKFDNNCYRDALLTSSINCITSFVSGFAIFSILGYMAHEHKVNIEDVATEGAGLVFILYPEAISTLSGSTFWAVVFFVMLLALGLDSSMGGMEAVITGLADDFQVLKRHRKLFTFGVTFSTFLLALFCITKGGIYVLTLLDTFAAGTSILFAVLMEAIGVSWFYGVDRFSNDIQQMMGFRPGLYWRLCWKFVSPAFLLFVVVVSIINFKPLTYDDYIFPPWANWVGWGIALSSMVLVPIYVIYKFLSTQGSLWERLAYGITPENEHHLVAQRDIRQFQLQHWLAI
T3 sequence (G1TDF9 1-617): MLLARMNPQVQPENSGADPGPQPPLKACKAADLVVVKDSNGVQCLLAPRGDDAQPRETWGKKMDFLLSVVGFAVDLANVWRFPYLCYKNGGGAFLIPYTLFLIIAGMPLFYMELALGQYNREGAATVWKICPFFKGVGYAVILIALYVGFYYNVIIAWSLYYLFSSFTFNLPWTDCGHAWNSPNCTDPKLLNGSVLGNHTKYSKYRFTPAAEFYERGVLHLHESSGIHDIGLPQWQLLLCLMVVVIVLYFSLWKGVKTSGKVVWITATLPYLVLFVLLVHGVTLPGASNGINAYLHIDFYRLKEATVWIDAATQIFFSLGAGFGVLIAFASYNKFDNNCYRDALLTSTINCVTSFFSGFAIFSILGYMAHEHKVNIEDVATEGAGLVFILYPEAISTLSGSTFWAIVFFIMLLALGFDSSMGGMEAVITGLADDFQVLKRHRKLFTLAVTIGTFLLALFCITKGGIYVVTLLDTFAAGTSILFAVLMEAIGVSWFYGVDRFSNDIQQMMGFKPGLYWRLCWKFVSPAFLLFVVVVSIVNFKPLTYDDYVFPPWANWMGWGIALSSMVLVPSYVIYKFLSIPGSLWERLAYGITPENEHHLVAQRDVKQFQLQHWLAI
T2 sequence (Q63380 1-617): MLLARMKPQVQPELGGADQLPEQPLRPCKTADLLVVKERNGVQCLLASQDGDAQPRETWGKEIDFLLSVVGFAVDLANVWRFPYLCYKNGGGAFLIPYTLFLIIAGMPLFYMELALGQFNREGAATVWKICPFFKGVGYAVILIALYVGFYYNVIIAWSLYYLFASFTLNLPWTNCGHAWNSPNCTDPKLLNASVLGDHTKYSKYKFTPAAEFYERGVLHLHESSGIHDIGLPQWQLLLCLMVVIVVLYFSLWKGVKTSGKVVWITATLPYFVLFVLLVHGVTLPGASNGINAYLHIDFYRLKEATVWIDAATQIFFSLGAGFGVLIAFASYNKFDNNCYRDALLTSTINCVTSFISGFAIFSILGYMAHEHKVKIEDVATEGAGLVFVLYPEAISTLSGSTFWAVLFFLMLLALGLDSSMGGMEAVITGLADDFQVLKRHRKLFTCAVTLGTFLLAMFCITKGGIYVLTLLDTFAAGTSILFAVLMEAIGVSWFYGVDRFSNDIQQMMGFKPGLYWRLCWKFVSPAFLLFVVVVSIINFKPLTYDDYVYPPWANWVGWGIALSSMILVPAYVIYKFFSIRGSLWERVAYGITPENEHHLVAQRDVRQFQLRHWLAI

Structure (SMILES): N=C(N)NCc1ccc(OCCC[18F])c(Br)c1 [imaging agent-1, 1-{3-Bromo-4-[3-[^18F]fluoropropoxy]benzyl}guanidine]
- Ratio of myocardial to liver radioactivity ([1]; at 4 hours): more than two
- Peak uptake, liver ([1]; average): approximately 15.5 % of the injected activity
- Peak uptake, urinary bladder ([1]; average): approximately 18.3 % of the injected activity
- Injected dose remaining in the myocardium ([1]; decay-corrected, through 4 hours after injection): above 1.5 % of ID
- Blood radioactivity clearance ([1]; human, in vivo): cleared quickly
- Lung activity ([1]; human, in vivo): low throughout the study
- Tolerability ([1]; human, in vivo): well tolerated
- Injected dose seen in the myocardium initially ([1]; initially): Approximately 1.6 % of the injected dose (ID)
- Ratio of myocardial to liver radioactivity ([1]; initially): approximately one
- Adverse events ([1]; twelve healthy subjects): No adverse events
- Vmax (NET mediated uptake) [2]: 6.0±1.3 pMol/million cells/min
- Inhibition of cell uptake by blockade of NET (desipramine) [3]: 66±7%
- tissue uptake at 60 min ([4]; rat, heart, other: injection, rats, control group of denervation): 2.58 ± 0.76 %ID/g
- Heart uptake ([4]; rats, control of uptake 1 blockade): 1.47±0.22 % ID/g
- Heart uptake ([4]; rats, uptake 1 blocked (desipramine 10 mg/kg ip)): 1.41±0.07 % ID/g
- Heart uptake ([4]; sympathetic denervated rats (6-hydroxydopamine)): 2.18±0.39 % ID/g
- Decrease in heart uptake after sympathetic denervation with 6-hydroxydopamine ([5]; 6-OHDA i.v.): 79%
- Inhibition of heart uptake by desipramine (uptake 1 blockade) ([5]; desipramine 1 mg/kg, 1 hour post dose): 68%
- Inhibition of cell uptake by blockade of NET (desipramine) [6]: 91±1%
- Global reduction in heart uptake compared to control animals (image based quantification) ([7]; rabbits with systemic denervation (6-hydroxydopamine)): ~80%
- Uptake in the treated regions after regional denervation ([7]; rabbits, phenol regional denervation): marked reduction
